From patent US8586566B2, “Unsaturated heterocyclic derivatives” (ARIAD Pharmaceuticals, Inc., priority 2005, dated 2013)

Row | melting point | Compound
1 | 230 to 234 °C | Cc1ccc(NC(=O)c2cccc(C(F)(F)F)c2)cc1/C=C/n1cnc2c(Nc3ccc(P(C)(C)=O)cc3)ncnc21 [Example 3, (E)-N-(3-(2-(6-(4-(Dimethylphosphoryl)phenylamino)-9H-purin-9-yl)vinyl)-4-methylphenyl)-3-(trifluoromethyl)benzamide]
2 | 201 °C | Cc1ccc(C(=O)Nc2cccc(C(F)(F)F)c2)cc1/C=C/n1cnc2c(NC3CC3)ncnc21 [Example 5, (E)-3-(2-(6-(Cyclopropylamino)-9H-purin-9-yl)vinyl)-4-methyl-N-(3-(trifluoromethyl)phenyl)benzamide]
3 | 160 to 162 °C | Cc1ccc(NC(=O)Nc2cccc(C(F)(F)F)c2)cc1/C=C/n1cnc2c(NC3CC3)ncnc21 [Example 6, (E)-1-(3-(2-(6-(Cyclopropylamino)-9H-purin-9-yl)vinyl)-4-methylphenyl)-3-(3-(trifluoromethyl)phenyl)urea]
